According to patent US8318772B2, “Amine compounds and medical uses thereof” (Institute of Pharmacology and Toxicology Academy of …, priority 2008, dated 2012):

Assays:
forced swim mice = experiment: Forced swim test in mice; assay type: in vivo, ICR mice; conditions: for Immobility time: last 4 min of 6 min
Description: Mail ICR mice (SPF grade) weighing 18-22 g were placed in a glass jar (diameter 10 cm, and height 20 cm) with water 10 cm in depth and a temperature of 25° C., observed for 6 min, and the accumulated immobility time of mice (i.e., the time that the animal has no motion or a slight motion in its hind limbs, but maintains body floated without motion) during the last 4 min was recorded. The mice were administrated with the compound to be tested and Duloxetine as the positive control drug via intraperitoneal injection at 30 min before the test or via intragastric administration at 60 min before the test.
In the forced swim model of mice, the antidepressant effect was evaluated to by observing the immobility time of the forced swim mice, and the shorter the immobility time, the stronger the antidepressant effect.

tail suspended mice [1] = experiment: Tail suspension test in mice; assay type: in vivo, Male ICR mice; conditions: 30 min before test, last 4 min of 6 min
From the text: Male ICR mice (SPF grade) weighing 18-22 g each was suspended by […] separately at 1 cm from the end of the tail with a clamp attached to a rope at the center of top plate of a 25×25×25 cm tail suspension box, and the head is away from the box bottom by 4-5 cm. […] The results of antidepressant effects of the target compounds administrated via intraperitoneal injection as determined by the tail suspension test in mice are given in Table 1. In the tail-suspended model of mice, the antidepressant effect was evaluated by observing the immobility time of the tail-suspended mice, and the shorter the immobility time, the stronger the antidepressant effect.

tail suspended mice [2] = experiment: Tail suspension test in mice; assay type: in vivo, Male ICR mice; conditions: for Immobility time: last 4 min of 6 min
[3] = 2.5 mg/kg i.p., 30 min before test
[4] = 5 mg/kg i.p., 30 min before test
[5] = 10 mg/kg i.p., 30 min before test
[6] = 20 mg/kg i.p., 30 min before test
[7] = 10 mg/kg i.g., 60 min before test
[8] = 5 mg/kg i.g., 60 min before test
[9] = 20 mg/kg i.g., 60 min before test

Compound	melting point	Immobility time (forced swim mice; [3])	Immobility time (forced swim mice; [4])	Immobility time (forced swim mice; [5])	Immobility time (forced swim mice; [6])	Immobility time (tail suspended mice [1]; 2.5 mg/kg i.p.)	Immobility time (tail suspended mice [1]; 5 mg/kg i.p.)	Immobility time (tail suspended mice [1]; 10 mg/kg i.p.)	Immobility time (tail suspended mice [1]; 20 mg/kg i.p.)	also measured
O=C(O)C(=O)O.c1csc(C(CCN2CCCCC2)Oc2cccc3c2OCO3)c1 (stereo not shown)	118 to 120 °C									
CNCC[C@H](Oc1cccc2ccccc12)c1cccs1 [Duloxetine, reference compound]					96.7 to 135.4 s					Immobility time (forced swim mice; 40 mg/kg i.g., 60 min before test): 60.5 ± 44.1 s; Immobility time (tail suspended mice [2]; [7]): 81.0 ± 44.7 s; Immobility time (tail suspended mice [2]; [5]): 35.9 to 49.2 s
O=C(O)C(=O)O.c1csc(C(CCN2CCCC2)Oc2cccc3c2OCO3)c1 (stereo not shown)	105 to 108 °C									
CNCCC(Oc1cccc2c1OCCO2)c1cccs1.O=C(O)C(=O)O (stereo not shown)	128 to 131 °C									
CN(C)CCC(Oc1cccc2c1OCCO2)c1cccs1.O=C(O)C(=O)O (stereo not shown)	89 to 92 °C									
CN(C)CCC(Oc1cccc2c1OCCO2)c1ccco1.O=C(O)C(=O)O (stereo not shown)	101 to 103 °C									

Second part, led by results:

melting point	Compound	Immobility time (forced swim mice; [3])	Immobility time (forced swim mice; [4])	Immobility time (forced swim mice; [5])	Immobility time (forced swim mice; [6])	Immobility time (tail suspended mice [1]; 2.5 mg/kg i.p.)	Immobility time (tail suspended mice [1]; 5 mg/kg i.p.)	Immobility time (tail suspended mice [1]; 10 mg/kg i.p.)	Immobility time (tail suspended mice [1]; 20 mg/kg i.p.)	also measured
85 to 88 °C	CN(C)CCC(Oc1cccc2c1OCO2)c1cccs1.O=C(O)C(=O)O (stereo not shown) [Compound I1, N,N-dimethyl-3-[(benzo[1,3]dioxolan-4-yl)-oxy]-3-(thiophen-2-yl)-propylamine.oxalate]	148.7 ± 40.3 s	86.7 ± 44.7 s	54.6 ± 44.0 s	18.6 ± 15.7 s	38.2 ± 32.5 s	20.2 ± 17.1 s	6.2 ± 7.4 s	2.0 ± 6.3 s	
97 to 101 °C	CN(C)CCC(Oc1cccc2c1OCO2)c1ccco1.O=C(O)C(=O)O (stereo not shown) [Compound I6, N,N-dimethyl-[3-(benzo[1,3]dioxolan-4-yl-oxy)-3-(furan-2-yl)]-propylamine.oxalate]	92.4 ± 39.2 s	96.5 ± 43.3 s	108.2 ± 46.7 s	61.2 ± 44.5 s	51.2 ± 34.3 s	53.9 ± 46.9 s	22.5 ± 28.1 s	11.9 ± 16.8 s	
130 to 133 °C	CNCCC(Oc1cccc2c1OCO2)c1ccco1.O=C(O)C(=O)O (stereo not shown) [Compound I7, N-methyl-[3-(benzo[1,3]dioxolan-4-yl-oxy)-3-(furan-2-yl)]propylamine.oxalate]	94.3 ± 55.3 s	78.9 ± 43.1 s	70.9 ± 33.0 s	28.4 ± 35.8 s	30.7 ± 44.1 s	21.9 ± 21.5 s	33.3 ± 31.2 s	0.3 ± 0.95 s	
120 to 123 °C	CNCCC(Oc1cccc2c1OCO2)c1cccs1.O=C(O)C(=O)O (stereo not shown) [Compound I2]	113.6 ± 47.4 s	119.4 ± 47.0 s	86.1 ± 36.5 s	43.1 ± 37.1 s	35.0 ± 30.0 s	20.8 ± 32.1 s	1.9 ± 4.0 s	2.5 ± 4.1 s	Immobility time (forced swim mice; [8]): 104.1 ± 39.7 s; Immobility time (forced swim mice; [7]): 83.7 ± 34.2 s; Immobility time (forced swim mice; [9]): 60.1 ± 33.8 s; antidepressant effect compared with Duloxetine (in words) (forced swim mice; i.g., I2 20 mg/kg vs Duloxetine 40 mg/kg): comparable to that of Duloxetine at the dose of 40 mg/kg; effect on immobility time (in words) (forced swim mice; intragastric administration, Table 4): significantly shorten the immobility time; Immobility time (tail suspended mice [2]; [8]): 66.1 ± 44.9 s; Immobility time (tail suspended mice [2]; [7]): 51.8 ± 36.0 s; Immobility time (tail suspended mice [2]; [9]): 22.0 ± 16.9 s; effect compared with duloxetine (in words) (tail suspended mice [2]; i.g., I2 5 mg/kg vs duloxetine 10 mg/kg): remarkably greater than that of duloxetine at the dose of 10 mg/kg; effect on immobility time (in words) (tail suspended mice [2]; intragastric administration, Table 2): significantly shorten the immobility time
